Test results as given in publication PMC4129108, “The natural triterpene 3β,6β,16β-trihydroxy-lup-20(29)-ene obtained from the flowers of Combretum leprosum induces apoptosis in MCF-7 breast cancer cells” (BMC Complementary and Alternative Medicine, 2014).
≈ marks a conversion by molar mass, not a printed value.

How the values were obtained:
HepG2 (hepatoma) = test: XTT cell viability assay, HepG2; type: cell-based, human; conditions: for IC50: Homo sapiens, XTT
Protocol: (§1) The human cell lines MCF-7 (breast adenocarcinoma), HepG2 (hepatoma), T24 (bladder cancer), CACO-2 (colorectal adenocarcinoma) and MRC5 (lung normal fibroblast) were obtained from the Rio de Janeiro Cell Bank (Rio de Janeiro, RJ, Brazil). The HCT116 cell (colorectal carcinoma), and HT29 cell (colorectal adenocarcinoma) were kindly provided by Dr. Annette K. Larsen (Institut National de la Santé et de la Recherche Médicale - INSERM, Paris, França). All cell lines except MCF-7 were grown in DMEM supplemented with 10% or 20% (for CACO-2) FBS, 100 units.mL^-1 penicillin and 100 μg.mL^-1 streptomycin at 37°C in a humidified atmosphere of 5% CO2. MCF-7 cells were maintained in RPMI-1640 supplemented with 20% FBS at the same conditions described above.
(§2) The cytotoxic potential of the TTHL was evaluated by the XTT assay in human tumor cell lines as well as in MRC5 normal fibroblasts. Cells (1 × 10^4 cells) were seeded on 96-well plates in growth medium and incubated overnight. Afterwards, TTHL (0.5, 1.0, 2.5, 5.0, and 10 μg/mL) was added to each well and incubated for 24, 48, 72, and 120 h. Mitoxantrone, a cytostatic anthracenedione that intercalates in DNA and increases the incidence of double-strand breaks by stabilizing the cleavable complex of topoisomerase II and DNA, was used as positive control. At the end of each treatment, cell viability was assessed according to the manufacturer’s instructions. Briefly, after discarding the medium, 1 mL of XTT labeling mixture was added to the cells and incubated for 2 h at 37°C. Absorbance was measured with a SpectraMax reader (Bio-Rad, USA) at a test wavelength of 492 nm (A492) and a reference wavelength of 690 nm (A690). The final result corresponds to A492-A690. The absorbance of negative control cells was set as 100% viability, and the values for treated cells were calculated as a percentage of the control.
(§3) The IC20, IC50, and IC80 values and their 95% confidence intervals (CI 95%) were obtained by nonlinear regression using GraphPad Prism v5 program (Intuitive Software for Science, San Diego, CA, USA). Selective index (SI) was calculated by IC50 in MRC5 cells/IC50 in tumoral cells. All experiments were independently repeated at least three times, with triplicate samples for each treatment. Results are expressed as means ± standard deviation (SD). Data were analyzed by one-way analysis of variance (ANOVA), and means were compared using Tukey test, with P ≤ 0.05 considered as statistically significant.

T24 (bladder cancer) = test: XTT cell viability assay, T24; type: cell-based, human; conditions: for IC50: Homo sapiens, XTT
Protocol: as §1, §2, §3

[1] = test system: MRC5 (lung normal fibroblast); test: XTT cell viability assay, MRC5 normal fibroblasts; type: cell-based; conditions: Homo sapiens
Protocol: as §1, §2, §3

MCF-7 cells = test: Alkaline comet assay; type: cell-based, human; conditions: MCF-7, 24 h
Protocol: Cells (2 × 10^5 cells/mL) were seeded on 6-well tissue culture plates, and grown for 1 day up to 70–80% confluence before treatment with the test substance. The TTHL was added to medium with FBS to obtain the different concentrations, and cells were treated at 37°C for 24 h in humidified atmosphere containing 5% CO2.
The alkaline comet assay was performed as previously described. Briefly, 10 μL of cell suspension (1 × 10^4 cells) treated with TTHL were mixed with 90 μL LMP agarose, spread on a normal agarose precoated microscope slide, and placed at 4°C for 5 min to allow for solidification. Cells were lysed in high concentration of salt and detergent (2.5 M NaCl, 100 mM Na2EDTA, 10 mM Tris with 1% Triton X-100 and 10% DMSO freshly added) for 2 h. Slides were removed from lysing solution and washed three times with PBS. Subsequently, cells were exposed to alkali conditions (300 mM NaOH/1 mM Na2EDTA, pH >13, 30 min, 4°C) to allow DNA unwinding and expression of alkali-labile sites. Electrophoresis was conducted for 25 min at 25 V and 300 mA ([…]). After electrophoresis, the slides were neutralized and silver stained. One hundred cells were scored visually according to the tail length and the amount of DNA present in the tail. Each comet was given an arbitrary value of 0–4 (0, undamaged; 4, maximally damaged), as described by Collins et al.. Damage score was thus assigned to each sample and can range from 0 (completely undamaged: 100 cells × 0) to 400 (with maximum damage: 100 cells × 4). International guidelines and recommendations for the comet assay consider that visual scoring of comets is a well-validated evaluation method, as it is highly correlated with computer-based image analysis.

With `C=C(C)[C@@H]1CC[C@@]2(C)[C@H]1[C@H]1CC[C@@H]3[C@@]4(C)CC[C@H](O)C(C)(C)[C@@H]4[C@H](O)C[C@@]3(C)[C@]1(C)C[C@@H]2O` [TTHL, 3β,6β,16β-trihydroxy-lup-20(29)-ene] as the molecule, how does the IC50 (HepG2 (hepatoma); HepG2, 24 h treatment) read?
Its IC50 is 6.5 ± 0.43 µg/mL (≈ 14.2 µM).

What about the IC50 (HepG2 (hepatoma); HepG2, 48 h treatment) of the same molecule?
Its IC50 is 6.1 ± 0.28 µg/mL (≈ 13.3 µM).

What about the IC50 (HepG2 (hepatoma); HepG2, 72 h treatment) of the same molecule?
The IC50 was 5.45 ± 0.35 µg/mL (≈ 11.9 µM).

And the IC50 (HepG2 (hepatoma); HepG2, 120 h treatment)?
Its IC50 is 0.88 ± 0.13 µg/mL (≈ 1.92 µM).

What about the “Selectivity index (SI)” value (HepG2 (hepatoma); IC50 in MRC5 cells/IC50 in HepG2, 24 h) of the same molecule?
Its value is 1.3 X.

What about the “Selectivity index (SI)” value (HepG2 (hepatoma); IC50 in MRC5 cells/IC50 in HepG2, 48 h) of the same molecule?
Its value is 1 X.

What about the “Selectivity index (SI)” value (HepG2 (hepatoma); IC50 in MRC5 cells/IC50 in HepG2, 72 h) of the same molecule?
The value was 1 X.

What about the “Selectivity index (SI)” value (HepG2 (hepatoma); IC50 in MRC5 cells/IC50 in HepG2, 120 h) of the same molecule?
Its value is 8 X.

And the IC50 (T24 (bladder cancer); T24, 24 h treatment)?
Its IC50 is 5.55 ± 0.64 µg/mL (≈ 12.1 µM).

And the IC50 (T24 (bladder cancer); T24, 48 h treatment)?
Its IC50 is 5.2 ± 0.42 µg/mL (≈ 11.3 µM).

And the IC50 (T24 (bladder cancer); T24, 72 h treatment)?
Its IC50 is 1.09 ± 0.14 µg/mL (≈ 2.38 µM).

And the IC50 (T24 (bladder cancer); T24, 120 h treatment)?
The IC50 was 0.39 ± 0.1 µg/mL (≈ 0.85 µM).

What about the “Selectivity index (SI)” value (T24 (bladder cancer); IC50 in MRC5 cells/IC50 in T24, 24 h) of the same molecule?
The value was 1.5 X.

And the “Selectivity index (SI)” value (T24 (bladder cancer); IC50 in MRC5 cells/IC50 in T24, 48 h)?
The value was 1.5 X.

What about the “Selectivity index (SI)” value (T24 (bladder cancer); IC50 in MRC5 cells/IC50 in T24, 72 h) of the same molecule?
The value was 7 X.

What about the “Selectivity index (SI)” value (T24 (bladder cancer); IC50 in MRC5 cells/IC50 in T24, 120 h) of the same molecule?
The value was 17 X.

What about the IC50 ([1]; MRC5, 24 h treatment) of the same molecule?
Its IC50 is 8.4 ± 0.28 µg/mL (≈ 18.3 µM).

And the IC50 ([1]; MRC5, 48 h treatment)?
The IC50 was 7.6 ± 0.14 µg/mL (≈ 16.6 µM).

And the IC50 ([1]; MRC5, 72 h treatment)?
Its IC50 is 7.4 ± 0.15 µg/mL (≈ 16.1 µM).

And the IC50 ([1]; MRC5, 120 h treatment)?
The IC50 was 6.84 ± 0.1 µg/mL (≈ 14.9 µM).

What about the “DNA damage (alkaline comet assay)” value (MCF-7 cells; TTHL at IC20) of the same molecule?
The value was “does not generate DNA-strand breaks”.

And the “DNA damage (alkaline comet assay)” value (MCF-7 cells; TTHL at IC50)?
Its value is “induces signifcant DNA damage”.

What about the “DNA damage (alkaline comet assay)” value (MCF-7 cells; TTHL at IC80) of the same molecule?
Its value is “induces signifcant DNA damage”.
